What all share (assay): biochemical
The target in one assay is VchβCA (Vibrio cholerae, UniProt A0A086SLX8).
Assay [1] has as its target VchαCA (Vibrio cholerae, UniProt Q9KMP6). Format: biochemical.
Assay [2] relates to VchαCA. The assay is classed as biochemical. As to conditions: for SI [ KI hCA I/KI VchαCA ]: selectivity index hCA I over VchαCA; for SI [ KI hCA II/KI VchαCA ]: selectivity index hCA II over VchαCA.
The target in another assay is VchγCA (Vibrio cholerae, UniProt Q9KVT1).
Sequence of VchγCA (Q9KVT1 1-184): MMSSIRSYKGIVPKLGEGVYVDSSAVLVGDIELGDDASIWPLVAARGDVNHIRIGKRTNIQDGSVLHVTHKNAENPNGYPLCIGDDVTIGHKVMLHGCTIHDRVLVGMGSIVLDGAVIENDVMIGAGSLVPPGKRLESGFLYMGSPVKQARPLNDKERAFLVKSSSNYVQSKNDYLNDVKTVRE

Sequence of VchαCA (Vibrio cholerae, UniProt Q9KMP6) (Q9KMP6 entry or part of it): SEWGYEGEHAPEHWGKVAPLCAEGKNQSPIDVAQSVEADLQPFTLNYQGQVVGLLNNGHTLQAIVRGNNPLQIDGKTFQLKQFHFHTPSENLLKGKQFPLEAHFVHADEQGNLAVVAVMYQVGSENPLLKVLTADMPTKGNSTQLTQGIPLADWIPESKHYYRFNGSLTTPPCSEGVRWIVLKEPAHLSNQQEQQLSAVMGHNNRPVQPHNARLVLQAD
Sequence of VchβCA (A0A086SLX8 entry or part of it): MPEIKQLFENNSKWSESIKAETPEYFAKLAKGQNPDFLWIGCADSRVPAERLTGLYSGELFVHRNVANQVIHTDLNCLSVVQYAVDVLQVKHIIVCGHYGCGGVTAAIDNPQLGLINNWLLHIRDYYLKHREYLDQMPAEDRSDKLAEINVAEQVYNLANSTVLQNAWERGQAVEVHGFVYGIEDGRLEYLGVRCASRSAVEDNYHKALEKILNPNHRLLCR

Consider `NS(=O)(=O)c1ccc(NCCNc2ccccc2)cc1` [1a], for which the values for the inhibitory constant (Ki) on VchβCA and on VchαCA [1] were 18.3 µM and 0.0781 µM, respectively. Moreover, the “SI [ KI hCA I/KI VchαCA ]” value in the assay on VchαCA [2] came to 0.3. Moreover, the “SI [ KI hCA II/KI VchαCA ]” value with VchαCA [2] is 0.1.

In the case of `NS(=O)(=O)c1ccc(NC(=O)CNc2ccccc2)cc1` [1b], the inhibitory constant (Ki) at VchγCA is 49.4 µM; on VchβCA it was 17.7 µM; at VchαCA [1] it was 0.053 µM. Further, the “SI [ KI hCA I/KI VchαCA ]” value in the assay with VchαCA [2] was 1.2. In addition, the “SI [ KI hCA II/KI VchαCA ]” value in the assay on VchαCA [2] amounted to 0.1.

Take `NS(=O)(=O)c1ccc(N2CCN(c3ccccc3)C2=O)cc1` [1c]: the inhibition constant (Ki) was found to be 5 µM at VchγCA, 134 µM on VchβCA and 0.0071 µM on VchαCA [1]. The “SI [ KI hCA I/KI VchαCA ]” value with VchαCA [2] worked out at 7.7. In addition, the “SI [ KI hCA II/KI VchαCA ]” value with VchαCA [2] is listed as 0.6.

`Cc1ccc(NCCNc2ccc(S(N)(=O)=O)cc2)cc1` [2a]: the inhibitory constant (Ki) is 39.9 µM on VchγCA, 16.8 µM on VchβCA and 0.0431 µM on VchαCA [1]. In addition, the “SI [ KI hCA I/KI VchαCA ]” value in the assay with VchαCA [2] turned out to be 0.2. Also, the “SI [ KI hCA II/KI VchαCA ]” value with VchαCA [2] is listed as 0.1.

As to `Cc1ccc(NCC(=O)Nc2ccc(S(N)(=O)=O)cc2)cc1` [2b], the Ki worked out at 82.6 µM at VchγCA, 97 µM at VchβCA and 0.0431 µM at VchαCA [1]. Moreover, the “SI [ KI hCA I/KI VchαCA ]” value in the assay on VchαCA [2] is reported as 0.2. Moreover, the “SI [ KI hCA II/KI VchαCA ]” value in the assay with VchαCA [2] was found to be 1.9.

Regarding `Cc1ccc(N2CCN(c3ccc(S(N)(=O)=O)cc3)C2=O)cc1` [2c], the values for the Ki on VchγCA, on VchβCA and at VchαCA [1] were 3.5 µM, 83.6 µM and 0.027 µM, respectively. For the same molecule, in the assay with VchαCA [2], the “SI [ KI hCA I/KI VchαCA ]” value was found to be 0.60. Besides, the “SI [ KI hCA II/KI VchαCA ]” value in the assay on VchαCA [2] turned out to be 0.14.

`NS(=O)(=O)c1ccc(NCCNc2ccc(Cl)cc2)cc1` [3a]: at VchβCA, the affinity corresponds to a Ki of 53.8 µM. Affinity on VchαCA [1] was put at a Ki of 0.0274 µM. For the same molecule, in the assay on VchαCA [2], the “SI [ KI hCA I/KI VchαCA ]” value stood at 1.4 and the “SI [ KI hCA II/KI VchαCA ]” value was found to be 1.7.

Take `NS(=O)(=O)c1ccc(N2CCN(c3ccc(Cl)cc3)C2=O)cc1` [3c]: the results for the Ki on VchγCA, at VchβCA and at VchαCA [1] were 50.2 µM, 106 µM and 0.047 µM, respectively. Besides, the “SI [ KI hCA I/KI VchαCA ]” value in the assay on VchαCA [2] worked out at 4.1. The “SI [ KI hCA II/KI VchαCA ]” value in the assay on VchαCA [2] was determined as 1.0.

At VchβCA, `NS(=O)(=O)c1ccc(NCCNc2ccc(I)cc2)cc1` [4a] returned a Ki of 136 µM. The same molecule came in with an inhibition constant (Ki) on VchαCA [1] of 0.065 µM. For the same molecule, in the assay with VchαCA [2], the “SI [ KI hCA I/KI VchαCA ]” value amounted to 12.1 and the “SI [ KI hCA II/KI VchαCA ]” value is reported as 9.9.

Turning to `NS(=O)(=O)c1ccc(NC(=O)CNc2ccc(I)cc2)cc1` [4b], the inhibition constant (Ki) was 72.5 µM at VchγCA, 157 µM on VchβCA and 0.0228 µM at VchαCA [1].

For `NS(=O)(=O)c1ccc(NCCNc2ccccc2Br)cc1` [5a], the affinity at VchβCA, expressed as Ki, was 89.2 µM. The molecule further returned an inhibitory constant (Ki) on VchαCA [1] of 0.0641 µM. Moreover, in the assay with VchαCA [2], the “SI [ KI hCA I/KI VchαCA ]” value was found to be 14.7 and the “SI [ KI hCA II/KI VchαCA ]” value was found to be 14.2.

`NS(=O)(=O)c1ccc(NC(=O)CNc2ccccc2Br)cc1` [5b]: the inhibition constant Ki on VchγCA was 87.7 µM; at VchβCA, 47.4 µM; at VchαCA [1], 0.062 µM.

With `NS(=O)(=O)c1ccc(N2CCN(c3ccccc3Br)C2=O)cc1` [5c], the Ki at VchγCA turned out to be 73.2 µM. Affinity on VchαCA [1] was put at a Ki of 0.0472 µM. In addition, in the assay with VchαCA [2], the “SI [ KI hCA I/KI VchαCA ]” value is on record as 0.1 and the “SI [ KI hCA II/KI VchαCA ]” value came out at 0.1.

On to `NS(=O)(=O)c1ccc(NCCNc2ccccc2F)cc1` [6a], for which the inhibitory constant (Ki) is 73.7 µM at VchγCA, 101 µM on VchβCA and 0.0362 µM at VchαCA [1]. Further, the “SI [ KI hCA I/KI VchαCA ]” value with VchαCA [2] is on record as 2.1. The “SI [ KI hCA II/KI VchαCA ]” value with VchαCA [2] came out at 0.2.

`NS(=O)(=O)c1ccc(NC(=O)CNc2ccccc2F)cc1` [6b]: the values for the Ki at VchγCA, on VchβCA and on VchαCA [1] were 93.1 µM, 51.4 µM and 0.079 µM, respectively. In addition, the “SI [ KI hCA I/KI VchαCA ]” value in the assay on VchαCA [2] was determined as 0.2. Moreover, the “SI [ KI hCA II/KI VchαCA ]” value with VchαCA [2] stood at 0.1.

`Cc1cccc(NCCNc2ccc(S(N)(=O)=O)cc2)n1` [7a]: the figures for the Ki on VchγCA, at VchβCA and at VchαCA [1] were 69.8 µM, 19 µM and 0.037 µM, respectively. The “SI [ KI hCA I/KI VchαCA ]” value with VchαCA [2] came out at 2.4. Moreover, in the assay on VchαCA [2], the “SI [ KI hCA II/KI VchαCA ]” value is 0.9.

`Cc1cccc(NCC(=O)Nc2ccc(S(N)(=O)=O)cc2)n1` [7b]: the Ki on VchγCA is 59.8 µM; on VchβCA, 73.1 µM; at VchαCA [1] it was 0.017 µM. For the same molecule, the “SI [ KI hCA I/KI VchαCA ]” value with VchαCA [2] is listed as 0.9. The “SI [ KI hCA II/KI VchαCA ]” value with VchαCA [2] was 0.3.

`Cc1cccc(N2CCN(c3ccc(S(N)(=O)=O)cc3)C2=O)n1` [7c]: the Ki at VchγCA is 80.2 µM; at VchβCA, 122 µM; on VchαCA [1], 0.011 µM. Also, in the assay on VchαCA [2], the “SI [ KI hCA I/KI VchαCA ]” value was determined as 5.0. In addition, the “SI [ KI hCA II/KI VchαCA ]” value with VchαCA [2] was 0.7.

For `NS(=O)(=O)c1ccc(NCCNCc2ccccc2)cc1` [8a], the inhibition constant Ki on VchγCA is 52.7 µM; at VchβCA, 12.4 µM; at VchαCA [1], 0.023 µM. In the assay on VchαCA [2], the “SI [ KI hCA I/KI VchαCA ]” value was determined as 7.4. For the same molecule, the “SI [ KI hCA II/KI VchαCA ]” value with VchαCA [2] turned out to be 1.4.

For orientation: Ki means the dissociation constant of the complex between target and ligand, obtained from inhibition or displacement. Lower therefore signals higher affinity.

Values taken from PMC10120512, “Benzenesulfonamide derivatives as Vibrio cholerae carbonic anhydrases inhibitors: a computational-aided insight in the structural rigidity-activity relationships” (Journal of Enzyme Inhibition and Medicinal Chemistry, 2023).
